Assay [1] can be described thus: DPPH radical scavenging activity. The note with it: mean ± SD (n = 3).
Procedure: Briefly, 150 μL of DPPH solution (dissolved 0.2 mM in methanol) was mixed with 50 μL of the sample at different concentrations. The mixture was stirred and incubated in the dark at 30°C for 30 min, and the absorbance was determined at 517 nm (Asample). The absorbance of a blank (Ablank) and negative control (Acontrol) composed of only the sample and DPPH solutions was also determined, respectively. The DPPH radical scavenging activity of the sample was calculated by the following equation: DPPHscavengingactivity = [1 − (Asample–Ablank)/Acontrol] × 100%. Vc was used as a positive control in this experiment.
Assay [2] can be described thus: ABTS radical scavenging activity. The note with it: mean ± SD (n = 3). How it is done:
The ABTS radical scavenging activity of the sample was carried out using the method reported by Sun et al. with minor modification. Briefly, 1.76 mL of K2S2O8 (140 mM) and 100 mL of ABTS solution (7 mM) were mixed and stored in the dark at 25°C for 12 h. […] The absorbance of a blank (Ablank) and negative control (Acontrol) composed of only the sample and diluted ABTS^+ radical solutions was also determined, respectively. The ABTS radical scavenging activity of the sample was calculated by the following equation: […] = [1 - (Asample-Ablank)/Acontrol] × 100%. Vc was used as a positive control in this experiment.

The structures appear in SMILES notation. In brackets after ≈: the same amount, converted by molar mass.

For `O=C1O[C@H]([C@@H](O)CO)C(O)=C1O` [Vc, L-Ascorbic acid], the “IC50 DPPH assay” value in assay [1] amounted to 6.0 ± 0.2 µg/mL (≈ 34.1 µM). Besides, the “IC50 ABTS assay” value in assay [2] was determined as 1.2 ± 0.1 µg/mL (≈ 6.81 µM).
